This passage reports IC50 results from patent US7960398B2, “Regulation of TNF-alpha” (Vertex Pharmaceuticals Incorporated, priority 2002, dated 2011).

Where only a bound is given, the exact number is not on record here.

For this assay, the system named is TNF-alpha. In words: Inhibition of TNF Release From Whole Blood. Conditions: human whole blood diluted 1:2 in PBS, LPS 5 ng/ml, incubated at 37° C. overnight, TNF-alpha in supernatants by ELISA. The assay is classed as cell-based. On the procedure:
Human blood was freshly drawn from healthy donors and collected in vacutainers. Blood was diluted 1:2 in PBS (tissue culture, pyrogen free) in a sterile bottle and inverted to mix well. Aliquots of 0.5 ml of blood mixture were dispensed into cluster tubes in 96 well format.
Dilutions of the test compounds were prepared in RPMI by taking 100 mM DMSO stocks of the compounds and diluting 1:10 in RPMI medium in eppendorfs, to give a 10 mM stock. 1:5 serial dilutions were prepared from the stock solutions.
LPS was kept at a frozen stock (−20 degrees C.) at 1 mg/ml in PBS and then diluted to 1:10 with RPMI medium and finally diluted in the medium again 1:350. 50 μl of each test compound (first concentration was 100 uM) were added to the blood samples and then stimulated with 10 μl LPS (final concentration in the well is 5 ng/ml). The contents were gently mixed using an 8 well multi-channel pipette and incubated at 37° C. overnight. At the end of the incubation time, contents were gently mixed, then spun down at 1000×g for 5 mins at 20° C. The serum supernatants were transferred to a fresh plate without disturbing the RBCs and diluted 1:2 with the diluent RD6C.
TNF-alpha levels of supernatants were assayed using the R+D systems ELISA kit, using R+D systems protocol. Samples were read at 450 nm. The compounds shown in Table 1 were tested in the above assay. In this TNF-alpha assay, category “A” indicates an IC50 value of <500 nM. Category “B” indicates an IC50 value of 500-1000 nM. […] Category “D” indicates an IC50 value of >2000 nM.
(In general: An ELISA detects its analyte on a solid surface through an enzyme-linked reagent.)
In the case of `C[C@@H](C(=O)NC(CC(=O)O)C(=O)CF)n1ccc2ccccc2c1=O` (stereo partly shown), the concentration for half-maximal inhibition (IC50) lay in the range of 1000 to 2000 nM.
On to `CC(C)[C@@H](C(=O)NC(CC(=O)O)C(=O)CF)n1cnc2ccccc2c1=O` (stereo partly shown), for which the 50% inhibitory concentration (IC50) fell in the range of 500 to 1000 nM.
`O=C(O)CC(NC(=O)[C@@H]1CCCCN1C(=O)OCc1cc(Cl)cc(Cl)c1)C(=O)CF` (stereo partly shown) yielded an IC50 of 1000 to 2000 nM.
For the compound `CC[C@@H](C(=O)NC(CC(=O)O)C(=O)CF)n1ccc2ccc(Cl)cc2c1=O` (stereo partly shown), the half-maximal inhibitory concentration (IC50) is under 500 nM.
With `CC[C@@H](C(=O)NC(CC(=O)O)C(=O)CF)n1cnc2ccc(Cl)cc2c1=O` (stereo partly shown), the IC50 is under 500 nM.
In the case of `CC[C@@H](C(=O)NC(CC(=O)O)C(=O)CF)n1cnc2ccc(Oc3ccccc3)cc2c1=O` (stereo partly shown), the IC50 was 500 to 1000 nM.
As for `CC[C@@H](C(=O)NC(CC(=O)O)C(=O)COc1c(F)c(F)cc(F)c1F)n1cnc2ccccc2c1=O` (stereo partly shown), the figure is 1000 to 2000 nM.
As to `CC[C@@H](C(=O)N[C@@H](CC(=O)O)C(=O)COc1c(F)c(F)cc(F)c1F)n1cnc2ccc(Cl)cc2c1=O`, the half-maximal inhibitory concentration (IC50) is 1000 to 2000 nM.
Compound `O=C(O)CC(NC(=O)[C@@H]1CCCCN1C(=O)OCc1cccc(Cl)c1F)C(=O)CF` (stereo partly shown) returned a 50% inhibitory concentration (IC50) of under 500 nM.
The compound `O=C(O)CC(NC(=O)[C@@H]1CCCCN1C(=O)OCc1cc(F)ccc1F)C(=O)CF` (stereo partly shown) registered a concentration for half-maximal inhibition (IC50) of under 500 nM.
The same measure for `CCC[C@@H](C(=O)NC(CC(=O)O)C(=O)CF)n1ccc2ccccc2c1=O` (stereo partly shown): under 500 nM.
`Cc1ccccc1COC(=O)N1CCCC[C@H]1C(=O)NC(CC(=O)O)C(=O)CF` (stereo partly shown) came in with a half-maximal inhibitory concentration (IC50) of under 500 nM.
The same measure for `CC[C@@H](C(=O)NC(CC(=O)O)C(=O)CF)n1cnc2ccc(Oc3ccccc3Cl)cc2c1=O` (stereo partly shown): over 2000 nM; for `CC[C@@H](C(=O)NC(CC(=O)O)C(=O)CF)n1cnc2ccc(Oc3cccc(Cl)c3)cc2c1=O` (stereo partly shown): over 2000 nM; for `CC[C@@H](C(=O)NC(CC(=O)O)C(=O)CF)n1cnc2ccc(Oc3cccc(F)c3)cc2c1=O` (stereo partly shown): over 2000 nM.
`CC[C@@H](C(=O)NC(CC(=O)O)C(=O)CF)n1cnc2ccc(Sc3cccc(F)c3)cc2c1=O` (stereo partly shown) yielded an IC50 of 1000 to 2000 nM.
The same measure for `CC[C@@H](C(=O)NC(CC(=O)O)C(=O)CF)n1ccc2ccc(C(F)(F)F)cc2c1=O` (stereo partly shown): 500 to 1000 nM; for `Cc1cccc(COC(=O)N2CCCC[C@H]2C(=O)NC(CC(=O)O)C(=O)CF)c1` (stereo partly shown): 500 to 1000 nM.
In turn, `CC[C@@H](C(=O)N[C@@H](CC(=O)O)C(=O)COP(=O)(c1ccccc1)c1ccccc1)n1cnc2ccccc2c1=O` yielded a concentration for half-maximal inhibition (IC50) of over 2000 nM.
Compound `CC[C@@H](C(=O)NC(CC(=O)O)C(=O)COc1c(F)c(F)cc(F)c1F)n1ccc2ccc(Cl)cc2c1=O` (stereo partly shown) had a 50% inhibitory concentration (IC50) of 1000 to 2000 nM.
As for `CCCSc1ccc2ncn([C@@H](CC)C(=O)NC(CC(=O)O)C(=O)CF)c(=O)c2c1` (stereo partly shown), the figure is under 500 nM; as for `CC[C@@H](C(=O)NC(CC(=O)O)C(=O)CF)n1ccc2ccc(-c3ccccc3)cc2c1=O` (stereo partly shown), under 500 nM.
With `CC[C@@H](C(=O)N[C@@H](CC(=O)O)C(=O)COc1c(F)c(F)cc(F)c1F)n1ccc2ccccc2c1=O`, the IC50 lay in the range of 500 to 1000 nM.
As for `O=C(O)C[C@H](NC(=O)[C@@H]1CCCCN1C(=O)OCc1cc(Cl)ccc1F)C(=O)COc1c(F)c(F)cc(F)c1F`, the figure is over 2000 nM; as for `CC[C@H](NC(=O)c1ncc[nH]1)C(=O)NC(CC(=O)O)C(=O)CF` (stereo partly shown), under 500 nM.
The same measure for `CCC[C@@H](C(=O)NC(CC(=O)O)C(=O)CF)n1cnc2ccccc2c1=O` (stereo partly shown): under 500 nM; for `CC[C@@H](C(=O)NC(CC(=O)O)C(=O)CF)n1cnc2ccccc2c1=O` (stereo partly shown): under 500 nM; for `CC(C)[C@H](NC(=O)OCc1ccccc1)C(=O)NC(CC(=O)O)C(=O)CF` (stereo partly shown): under 500 nM.
On to `O=C(O)CC(NC(=O)[C@@H]1CCCc2cc3ccccc3c(=O)n21)C(=O)CF` (stereo partly shown), for which the IC50 was under 500 nM.
The same measure for `CC(C)[C@H](OC(=O)Nc1ccccc1)C(=O)NC(CC(=O)O)C(=O)CF` (stereo partly shown): under 500 nM.
The same measure for `Cc1c(C(=O)N[C@H](C(=O)NC(CC(=O)O)C(=O)CF)C(C)C)n(C)c2ccccc12` (stereo partly shown): under 500 nM; for `O=C(O)CC(NC(=O)[C@@H]1CCCCN1C(=O)c1sc2ccccc2c1Cl)C(=O)CF` (stereo partly shown): under 500 nM; for `O=C(O)CC(NC(=O)[C@@H]1CCCc2nc3ccccc3c(=O)n21)C(=O)CF` (stereo partly shown): 500 to 1000 nM.
For `C[C@H](OC(=O)Nc1ccccc1)C(=O)NC(CC(=O)O)C(=O)CF` (stereo partly shown), the IC50 was 500 to 1000 nM.
With `O=C(O)CC(NC(=O)[C@@H]1CCCCN1C(=O)N1c2ccccc2Sc2ccc(Cl)cc21)C(=O)CF` (stereo partly shown), the IC50 was in the range of 500 to 1000 nM.
`O=C(O)CC(NC(=O)[C@@H]1CCCCN1C(=O)N1c2ccccc2Sc2ccc(C(F)(F)F)cc21)C(=O)CF` (stereo partly shown) had a 50% inhibitory concentration (IC50) of over 2000 nM.
`C[C@@H](C(=O)NC(CC(=O)O)C(=O)CF)n1cnc2ccccc2c1=O` (stereo partly shown) [drawing 34]: the 50% inhibitory concentration (IC50) is under 500 nM.
In turn, `CC(C)[C@H](OC(=O)n1c2ccccc2c2ccccc21)C(=O)NC(CC(=O)O)C(=O)CF` (stereo partly shown) [drawing 36] came in with an IC50 of 1000 to 2000 nM.
In turn, `O=C(O)CC(NC(=O)[C@@H]1CCCCN1C(=O)O[C@H](c1ccccc1)C(F)(F)F)C(=O)CF` (stereo partly shown) [drawing 37] gave a concentration for half-maximal inhibition (IC50) of under 500 nM.
As for `O=C(O)CC(NC(=O)[C@@H]1CCCCN1C(=O)c1ccc(-c2cccc(C(F)(F)F)c2)o1)C(=O)CF` (stereo partly shown) [drawing 39], the figure is over 2000 nM; as for `O=C(O)CC(NC(=O)[C@@H]1CCCCN1C(=O)OCc1cc(Cl)ccc1F)C(=O)CF` (stereo partly shown) [drawing 40], under 500 nM; as for `O=C(O)CC(NC(=O)[C@@H]1CCCCN1C(=O)O[C@H](c1ccccc1)C(F)(F)F)C(=O)CF` (stereo partly shown) [drawing 65], under 500 nM.
On to `C[C@@H](C(=O)NC(CC(=O)O)C(=O)CF)n1cnc2ccccc2c1=O` (stereo partly shown) [drawing 66], for which the IC50 is under 500 nM.
For the compound `O=C(O)CC(NC(=O)[C@@H]1CCCCN1C(=O)OCc1cc(Cl)ccc1F)C(=O)CF` (stereo partly shown) [drawing 70], the IC50 was under 500 nM.
`CC(C)[C@H](OC(=O)n1c2ccccc2c2ccccc21)C(=O)NC(CC(=O)O)C(=O)CF` (stereo partly shown) [drawing 76] had a half-maximal inhibitory concentration (IC50) of 1000 to 2000 nM.
In the case of `O=C(O)CC(NC(=O)[C@@H]1CCCCN1C(=O)c1ccc(-c2cccc(C(F)(F)F)c2)o1)C(=O)CF` (stereo partly shown) [drawing 78], the IC50 was over 2000 nM.

Broadly, the IC50 is the point on the concentration scale where inhibition reaches its midpoint. A lower IC50 goes with higher potency.
